Results taken from the NIST ThermoML archive (doi:10.1016/j.jct.2016.02.007).
Numbers after ± are expanded uncertainties.

Assays:
[1] = 101.3 kPa, Liquid, Vibrating tube method
[2] = wn = mass fraction of the nth substance listed; details: 101.3 kPa, Liquid, Vibrating tube method, w2 = 0

mass density ([1]; 293.15 K)	mass density ([1]; 298.15 K)	mass density ([1]; 303.15 K)	mass density ([1]; 308.15 K)	mass density ([1]; 313.15 K)	mass density ([1]; 318.15 K)	mass density ([1]; 323.15 K)	mass density ([1]; 328.15 K)	mass density ([1]; 333.15 K)	mass density ([1]; 338.15 K)	mass density ([1]; 343.15 K)	mass density ([2]; 313.15 K)	mass density ([2]; 318.15 K)	mass density ([2]; 323.15 K)	mass density ([2]; 328.15 K)	mass density ([2]; 333.15 K)	mass density ([2]; 338.15 K)	mass density ([2]; 343.15 K)	Compound
886.7 ± 4.8 kg/m3	883 ± 4.8 kg/m3	879.1 ± 4.8 kg/m3	875.1 ± 4.8 kg/m3	871.2 ± 4.8 kg/m3	867.2 ± 4.8 kg/m3	863.1 ± 4.8 kg/m3	859.1 ± 4.8 kg/m3	855 ± 4.8 kg/m3	850.8 ± 4.8 kg/m3	846.7 ± 4.8 kg/m3	–	–	–	–	–	–	–	CN(C)CCCO [3-dimethylamino-1-propanol]
–	–	–	–	992.3 ± 1 kg/m3	990.3 ± 1 kg/m3	988 ± 1 kg/m3	985.6 ± 1 kg/m3	983.3 ± 1 kg/m3	980.7 ± 1 kg/m3	977.9 ± 1 kg/m3	–	–	–	–	–	–	–	O [water]
–	–	–	–	–	–	–	–	–	–	–	992.3 ± 4.8 kg/m3	990.3 ± 4.8 kg/m3	988 ± 4.8 kg/m3	985.6 ± 4.8 kg/m3	983.3 ± 4.8 kg/m3	980.7 ± 4.8 kg/m3	977.9 ± 4.8 kg/m3	O [water] + CN(C)CCCO
